The subject of series [1] is triglyceride biosynthesis. Put plainly: in vitro inhibitory activity on triglyceride biosynthesis, cell test ([14C] glycerol incorporation in Chang liver cells). The format is cell-based. The conditions noted are these: compounds incubated 30 minutes, then [14C] glycerol incorporation for 6 hours, read-out: inhibitory activity on triglyceride biosynthesis, concentration that inhibits 50% of the activity. Here is the method: These trials consisted in measuring the in vitro inhibitory activity of the compounds of the invention on a cell test.
Chang liver cells at 80% confluence are detached with trypsin-EDTA, 4 ml per 175 cm^2 flask. After centrifugation at 1300×g for 5 minutes, the cell pellet is washed once with PBS and then resuspended in whole medium. The number of cells and their viability are determined on Mallassez cells via the exclusion method with trypan blue.
150 000 cells are inoculated per well into a 24-well plate for a minimum of 3 hours in DMEM medium 4.5 g/l of glucose supplemented with 10% FCS and with antibiotics, and are maintained at 37° C. in an incubator with CO2 (5%).
After 3 hours, the cells have adhered, the medium is removed and replaced overnight with DMEM medium 4.5 g/l of glucose with 2% of BSA/oleate.
After culturing for 18 hours without serum, the test compounds are incubated for 30 minutes ([…], 30, 100, 300 and 1000 nM) with the cells, followed by addition of [^14C] glycerol (0.4 μCi/ml/well) for an incorporation time of 6 hours.
The supernatant is drawn off and the cells are recovered by treatment with trypsin-EDTA, 100 μl/well, for 5 minutes at 37° C. This cell suspension is then recovered in an Eppendorf tube and is washed with twice 500 μl of PBS. The centrifugation at 1300×g for 5 minutes allows recovery of the cell pellets, which may be frozen at −20° C. In order to extract the lipids from the cell pellet, 400 μl of a methanol/dichloromethane/trifluoroacetic acid mixture (50/50/0.1%) is used to resuspend the cells. Next, the cell membranes are destroyed by sonication on a water bath, for 30 minutes. The samples are filtered through a 0.45 μm filtered and then injected onto a C18 HPLC column of 4.6×75 mm, 3 μm with a mobile phase of 5% (H2O+0.1% TFA), 70% methanol, 25% dichloromethane, with a flow rate of 1.5 ml/minute. The radioactivity is measured using a Flo One C625TR machine (Perkin-Elmer).
The inhibitory activity on triglyceride biosynthesis is given by the concentration that inhibits 50% of the activity.

SMILES strings stand for the structures. pIC50: −log10 of the molar value.

Here are results for 4 compounds from patent US8546391B2, “Thiadiazole and oxadiazole derivatives, preparation thereof and therapeutic use thereof” (Sanofi, priority 2009, dated 2013).

By melting point is commonly meant the temperature, or range, at which the solid turns liquid.

As to `O=C(O)C[C@H]1CC[C@H](c2ccc(C(=O)Nc3nnc(COC4CCCC4)s3)cc2)CC1` [Compound 37, trans-{4-[4-(5-cyclopentyloxymethyl[1.3.4]thiadiazol-2-ylcarbamoyl)-phenyl]cyclohexyl}acetic acid], the pIC50 in series [1] is 7.74.
For the compound `O=C(Nc1nnc(Cc2ccccc2)s1)c1ccc(N[C@H]2CC[C@@H](C(=O)O)CC2)cc1` [Compound 68, cis-4-[4-(5-benzyl[1.3.4]thiadiazol-2-ylcarbamoyl)phenylamino]cyclohexanecarboxylic acid], the pIC50 in series [1] was 6.57.
Same read-out and setting: then `O=C(Nc1nnc(Cc2cccc(Cl)c2)s1)c1ccc(O[C@H]2CC[C@@H](C(=O)O)CC2)nc1` [Compound 63, cis-4-{5-[5-(3-chlorobenzyl)[1.3.4]thiadiazol-2-ylcarbamoyl]pyridin-2-yloxy}cyclohexanecarboxylic acid], with 7.07.
`O=C(O)C[C@H]1CC[C@H](c2ccc(C(=O)Nc3nnc(COCC4CCCC4)s3)cc2)CC1` [Compound 40, trans-{4-[4-(5-cyclopentylmethoxymethyl[1,3,4]thiadiazol-2-ylcarbamoyl)phenyl]cyclohexyl}acetic acid] yielded a melting point of 241 °C. Further, in series [1], the pIC50 is 7.29.
